Source: publication PMC11191600 (ACS chemical neuroscience, 2024)
pIC50, pKi: −log10 of the molar value.

How the values were obtained:
[1] = Microsomal stability, human hepatic microsomes; format: in vitro ADME; conditions: predicted hepatic clearance
[2] = target: human dopamine D3 receptor (Homo sapiens, UniProt P35462); assay: Human dopamine D3 receptor radioligand binding assay (Eurofins); conditions: 10 μM; [3H]Spiperone binding; Eurofins Discovery
[3] = Metabolite profiling in rat hepatocytes; format: in vitro ADME; conditions: 4 h
[4] = Kinetic solubility (shake flask, McIlvaine buffer); format: physicochemical; conditions: kinetic, 100 µM, 18 hours room temperature; for Solubility pH = 2.2: McIlvaine buffer pH 2.2; for Solubility pH = 6.8: McIlvaine buffer pH 6.8
[5] = Plasma protein binding, equilibrium dialysis, rat plasma; format: in vitro ADME
[6] = Metabolite profiling in human hepatocytes; format: in vitro ADME; conditions: 4 h
[7] = target: human dopamine D2S receptor (Homo sapiens, UniProt P14416); assay: Human dopamine D2S receptor radioligand binding assay (Eurofins); conditions: 10 μM; [3H]Spiperone binding; Eurofins Discovery
[8] = target: human dopamine D1 receptor (Homo sapiens, UniProt P21728); assay: Human dopamine D1 receptor radioligand binding assay (Eurofins); conditions: 10 μM; [3H]SCH-23390 binding; Eurofins Discovery
[9] = target: T1, human dopamine D4.4 receptor (Homo sapiens, UniProt P21917); assay: Human dopamine D4.4 receptor radioligand binding assay (Eurofins); conditions: Eurofins Discovery; for % Inhibition at 10 μM D4.4: [3H]Spiperone binding; for pIC50: read-out: D4.4 IC50; for pKi: read-out: D4.4 Ki
T1 sequence (P21917 1-419): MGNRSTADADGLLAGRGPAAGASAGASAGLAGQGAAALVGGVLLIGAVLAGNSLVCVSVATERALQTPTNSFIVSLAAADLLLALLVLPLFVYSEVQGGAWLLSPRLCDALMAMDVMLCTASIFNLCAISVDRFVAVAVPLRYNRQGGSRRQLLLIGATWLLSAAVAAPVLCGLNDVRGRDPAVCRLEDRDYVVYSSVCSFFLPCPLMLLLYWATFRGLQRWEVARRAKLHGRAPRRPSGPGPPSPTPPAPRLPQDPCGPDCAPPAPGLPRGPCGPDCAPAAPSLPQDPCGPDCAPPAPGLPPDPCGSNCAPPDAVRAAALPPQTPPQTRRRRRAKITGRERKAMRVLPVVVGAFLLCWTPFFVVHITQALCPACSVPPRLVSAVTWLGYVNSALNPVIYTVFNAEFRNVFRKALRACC

[10] = Microsomal stability, rat hepatic microsomes; format: in vitro ADME; conditions: predicted hepatic clearance
[11] = In vivo pharmacokinetics, intravenous cassette dosing in rats; parameters: species or system male Sprague-Dawley rats; conditions: rat; for AUC (area under the curve) / CLp (plasma clearance) / Vss (volume of distribution at steady-state) / t1/2 (terminal phase plasma half-life): intravenous 0.2 mg/kg, cassette; for in vivo clearance relative to hepatic blood flow (superhepatic clearance): intravenous dosing
[12] = target: Human recombinant dopamine D2L receptor (Homo sapiens, UniProt P14416); assay: Human dopamine D2L receptor radioligand binding assay (Eurofins); conditions: 10 μM; [3H]Spiperone binding; Eurofins Discovery
[13] = Plasma protein binding, equilibrium dialysis, human plasma; format: in vitro ADME

human dopamine D3 receptor, sequence (P35462 whole entry): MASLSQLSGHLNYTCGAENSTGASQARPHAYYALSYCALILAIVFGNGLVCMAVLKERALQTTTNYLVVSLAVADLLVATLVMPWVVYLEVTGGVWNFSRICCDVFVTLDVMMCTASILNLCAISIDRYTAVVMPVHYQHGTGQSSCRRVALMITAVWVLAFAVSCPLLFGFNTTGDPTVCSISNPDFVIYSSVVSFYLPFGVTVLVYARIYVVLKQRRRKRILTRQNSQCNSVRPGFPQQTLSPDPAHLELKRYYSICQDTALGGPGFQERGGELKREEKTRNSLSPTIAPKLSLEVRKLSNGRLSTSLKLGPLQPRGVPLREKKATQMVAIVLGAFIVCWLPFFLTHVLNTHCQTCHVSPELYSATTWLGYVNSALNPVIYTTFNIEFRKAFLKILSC
Human recombinant dopamine D2L receptor, sequence (P14416 whole entry): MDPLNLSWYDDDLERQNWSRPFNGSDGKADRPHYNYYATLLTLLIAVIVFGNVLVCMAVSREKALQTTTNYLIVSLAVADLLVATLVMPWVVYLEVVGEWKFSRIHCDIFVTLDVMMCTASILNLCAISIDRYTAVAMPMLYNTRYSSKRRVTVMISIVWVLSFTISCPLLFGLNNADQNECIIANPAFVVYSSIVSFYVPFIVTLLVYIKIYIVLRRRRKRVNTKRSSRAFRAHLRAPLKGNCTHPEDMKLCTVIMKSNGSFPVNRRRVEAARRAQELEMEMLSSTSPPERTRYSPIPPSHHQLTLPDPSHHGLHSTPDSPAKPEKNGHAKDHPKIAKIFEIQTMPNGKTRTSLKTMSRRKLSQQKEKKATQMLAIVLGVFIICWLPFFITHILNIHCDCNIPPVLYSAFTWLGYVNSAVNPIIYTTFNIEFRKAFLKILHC
human dopamine D2S receptor, sequence (P14416 1-414 isoform P14416-2): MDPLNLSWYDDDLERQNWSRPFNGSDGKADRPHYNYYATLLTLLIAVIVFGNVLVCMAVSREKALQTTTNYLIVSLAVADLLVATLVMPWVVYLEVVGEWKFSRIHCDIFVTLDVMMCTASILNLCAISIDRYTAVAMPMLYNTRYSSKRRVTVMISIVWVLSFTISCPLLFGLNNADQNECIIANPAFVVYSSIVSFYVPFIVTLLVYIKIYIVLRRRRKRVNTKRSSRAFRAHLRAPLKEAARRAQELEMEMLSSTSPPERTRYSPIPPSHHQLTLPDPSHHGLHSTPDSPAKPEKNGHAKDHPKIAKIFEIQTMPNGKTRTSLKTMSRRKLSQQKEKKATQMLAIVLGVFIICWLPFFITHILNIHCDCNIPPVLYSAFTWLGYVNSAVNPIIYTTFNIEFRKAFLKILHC
human dopamine D1 receptor, sequence (P21728 whole entry): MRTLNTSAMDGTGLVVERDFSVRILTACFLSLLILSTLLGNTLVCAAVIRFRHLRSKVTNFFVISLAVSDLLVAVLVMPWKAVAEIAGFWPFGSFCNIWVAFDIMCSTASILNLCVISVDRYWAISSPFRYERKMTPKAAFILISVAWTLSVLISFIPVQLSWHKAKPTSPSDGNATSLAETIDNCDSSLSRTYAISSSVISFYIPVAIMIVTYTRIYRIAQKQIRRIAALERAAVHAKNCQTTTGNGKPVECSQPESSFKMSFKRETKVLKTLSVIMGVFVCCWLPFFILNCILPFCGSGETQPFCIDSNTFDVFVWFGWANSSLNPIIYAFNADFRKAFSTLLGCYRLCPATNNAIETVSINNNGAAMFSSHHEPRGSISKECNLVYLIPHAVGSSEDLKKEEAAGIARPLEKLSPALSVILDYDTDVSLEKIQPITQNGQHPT

Compound	CLH human (hepatic clearance) [1]	% Inhibition at 10 μM D3 [2]	Solubility pH = 2.2 [4]	Solubility pH = 6.8 [4]	fu,plasma rat (fraction unbound) [5]	% Inhibition at 10 μM D2S [7]	% Inhibition at 10 μM D1 [8]	% Inhibition at 10 μM D4.4 [9]	pIC50 [9]	pKi [9]	CLH rat (hepatic clearance) [10]	AUC (area under the curve) [11]	CLp (plasma clearance) [11]	Vss (volume of distribution at steady-state) [11]	t1/2 (terminal phase plasma half-life) [11]	in vivo clearance relative to hepatic blood flow (superhepatic clearance) [11]	% Inhibition at 10 μM D2L [12]	fu,plasma human (fraction unbound) [13]	also measured
Cc1ccccc1C(=O)N1CC2(CCN(Cc3c[nH]c4cc(F)ccc34)CC2)C1 [Compound 33]	0.96 L/h/kg	11%	92.9 µM	87.7 µM	0.26	0%	9%	93%	6.68	7.23	2.34 L/h/kg	0.027 µg·h/mL	7.38 L/h/kg	36.9 L/kg	4.02 h	> 100 % Qh	−7%	0.19	piperidine N-dealkylation metabolite, relative percentage [3]: 32.4%; turnover in hepatocytes [3]: moderate turnover; parent compound remaining postincubation ([3]; LC/MS relative percentage): 65.8%; piperidine N-dealkylation metabolite, relative percentage [6]: 6.3%; turnover in hepatocytes [6]: low turnover; parent compound remaining postincubation ([6]; LC/MS relative percentage): 87.9%
O=C(c1ccc2c(c1)OCO2)N1CC2(CCN(Cc3c[nH]c4cc(F)ccc34)CC2)C1 [Compound 20]	0.822 L/h/kg	14%	86.4 µM	82.7 µM	0.23	12%	16%	95%	7.08	7.64	2.17 L/h/kg	0.0264 µg·h/mL	7.56 L/h/kg	44.4 L/kg	4.55 h	> 100 % Qh	18%	0.10	–
